Broadly, the fold induction is the signal under treatment as a multiple of the control signal.

Data on one compound can be found in PubChem BioAssay AID1053162 (Broad Institute, 2014).

The assay has as its system HepG2 PCSK9 mRNA, RT-qPCR, 24 h. Nature of the assay: PCSK9 mRNA changes with sterol depletion, late-stage follow-up, mechanism study for Trib1 inducer project, cell-based, HepG2, RT-PCR, cherry-picked dose (AID 1053162). Particulars: stronger effect = higher value.

`CN1C(=O)c2cc(NC(=O)c3ccc(C(F)(F)F)cc3)ccc2OC[C@@H]2O[C@H](CC(=O)NC3Cc4ccccc4C3)CC[C@@H]21`: the fold induction was 2.5.
